Reference: patent publication US12121522B2, “Methods of treating cancer with an mTOR inhibitor” (Revolution Medicines, Inc., priority 2022, dated 2024)

Tests used:
Mouse plasma exposure = assay type: in vivo; conditions: fu 0.001-0.004
[1] = tested on: TOV21G ovarian cancer CDX; assay: TOV21G ovarian cancer xenograft; assay type: in vivo, mouse
Procedure: FIGS. 2A-2D show Antitumor Activity of RMC-5552 in the TOV21G Cell Line-Derived Xenograft Model of Human Ovarian Cancer Following Once-Weekly Administration. Abbreviations: ANOVA=analysis of variance; IP=intraperitoneal; QW=once weekly. […] Each animal represented as a separate bar. Number of animals per group=10, or n=5 in 3 mg/kg dosing arm. Numbers indicate number of regressions at respective doses (defined as >10% reduction in tumor volume from starting volume) in each group. […] FIG. 2D reflects Kaplan-Meier survival analysis of the time for TOV21G tumors to regrow to a tumor volume of 300 mm^3 following treatment cessation. Median time to regrowth in RMC-5552 3 mg/kg arm is 61 days, while 10 mg/kg dose survival time was undefined, extending past 73 days. Dotted horizontal line indicates time to regrowth of 50% of the tumors in a treatment.
(§1) The antitumor activity of RMC-5552 as a single agent against tumors predicted to be dependent on the mTOR pathway and/or bearing specific PI3K/mTOR pathway-activating mutations (i.e., PIK3CA^mut, phosphatase and tensin homolog [PTEN^LOF], or co-mutation of both and tuberous sclerosis complex [TSC^LOF]) was evaluated in selected CDX and/or PDX models
(§2) Table 1. RMC-5552 was administered IP once weekly at 1, 3, 10, and 30 mg/kg. In the breast cancer MCF7 PIK3CA^[…] model, a higher dose of 50 mg/kg once weekly and an alternate dose regimen of 30 mg/kg every 10 days were also evaluated.

[2] = tested on: MCF7 PIK3CA^E545K breast cancer CDX; assay: MCF7 breast cancer xenograft; assay type: in vivo, mouse
Source text: FIGS. 1A-1B show Dose-Dependent Antitumor Effects of Repeated RMC-5552 Weekly Treatment in the MCF7 Xenograft Model of Human Estrogen Receptor Positive Breast Cancer in Athymic Nude Mice. Abbreviations: ANOVA=analysis of variance; IP=intraperitoneal; QW=once weekly. […] Each animal represented as a separate bar. Number of animals per group=12. Numbers indicate number of regressions at respective doses (defined as >10% reduction in tumor volume from starting volume) in each group.
as §1, §2

**Q.** For `CO[C@H]1C[C@@H]2CC[C@@H](C)[C@@](O)(O2)C(=O)C(=O)N2CCCC[C@H]2C(=O)O[C@H]([C@H](C)C[C@@H]2CC[C@@H](OC(=O)NCCOCCOCCOCCOCCOCCOCCOCCOCCC(=O)N3CCc4cc(Cn5nc(-c6ccc7oc(N)nc7c6)c6c(N)ncnc65)ccc4C3)[C@H](OC)C2)C[C@@H](O)[C@H](C)/C=C(\C)[C@@H](O)[C@@H](OC)C(=O)[C@H](C)C[C@H](C)/C=C/C=C/C=C/1C` [RMC-5552], which “Unbound AUC0-last, mean mouse exposure” value (Mouse plasma exposure; 1 mg/kg) is on record?
**A.** 0.021 to 0.084 µM·h

**Q.** What about the “Unbound Cmax, mean mouse exposure” value (Mouse plasma exposure; 1 mg/kg) of the same molecule?
**A.** 2 to 8 nM

**Q.** And the “Unbound AUC0-last, mean mouse exposure” value (Mouse plasma exposure; 3 mg/kg)?
**A.** 0.053 to 0.21 µM·h

**Q.** What about the “Unbound Cmax, mean mouse exposure” value (Mouse plasma exposure; 3 mg/kg) of the same molecule?
**A.** 3.7 to 14.7 nM

**Q.** And the tumor regression ([1]; 3 mg/kg IP QW)?
**A.** 34% regression

**Q.** And the “median time to regrowth to 300 mm^3 after treatment cessation” value ([1]; 3 mg/kg QW IP, 4 doses)?
**A.** 61 days

**Q.** And the tumor regression ([1]; 10 mg/kg IP QW)?
**A.** 61% regression

**Q.** And the “time to regrowth to 300 mm^3 after treatment cessation (undefined)” value ([1]; 10 mg/kg QW IP, 4 doses)?
**A.** > 73 days

**Q.** What about the TGI ([2]; 1 mg/kg IP QW) of the same molecule?
**A.** 64%

**Q.** And the TGI ([2]; 3 mg/kg IP QW)?
**A.** 93%

**Q.** What about the TGI ([2]; 10 mg/kg IP QW) of the same molecule?
**A.** 93%

**Q.** What about the tumor regression ([2]; dose not printed on this line) of the same molecule?
**A.** 15% regression
